Results from patent US12241902B2, “Probes for detection of copper” (The Regents of the University of California, priority 2019, dated 2025).

What was measured:
[1] = test system: labile Cu(I) pools in HeLa cells; experiment: Ratiometric confocal fluorescence imaging of labile Cu(I) in HeLa cells under redox stress; format: cell-based, Human; conditions: FCP-1 5 μM
Method: Confocal fluorescence microscopy images of HeLa cells pretreated with (A) solvent control, CuCl2 (200 or 300 μM), or BCS (100 μM) in complete medium for 18 h, or (B) solvent control, ascorbate (1 mM), or BSO (1 mM) in complete medium for 4 h. The cells were then washed with PBS, incubated with FCP-1 (5 μM) in DPBS for 45 min and imaged with λex=458 nm. The bar charts show average cellular ratiometric FCP-1 emission, Fgreen/Forange, determined from experiments performed in triplicate. (C) Total cellular ^63Cu levels were determined by ICP-MS experiments (with normalization of different cell numbers by total cellular ^31P level). […]
Confocal fluorescence microscopy imaging. For confocal fluorescence imaging experiments of HEK293T, MEF Ctr1^+/+ and Ctr1^−/− and HeLa cells, the cells were plated on 8-well Lab Tek borosilicate chambered coverglass slides (Nunc), and allowed to grow to ca. 60% confluency before performing the cell imaging experiments. […] For quantification, a threshold value was set as background and the average intensity of the whole image was measured by ImageJ. […]
In view of the oxidation state-specificity of FCP-1 toward Cu(I), the impact of cellular redox status on labile Cu(I) pools was examined First, the ability of FCP-1 to detect changes in labile Cu(I) levels in HeLa cells with CuCl2 and BCS treatments was evaluated (FIG. 16A). […]

[2] = test system: labile Cu(I) in Ctr1^+/+ MEFs; experiment: Confocal fluorescence imaging of labile Cu(I) in Ctr1+/+ MEFs; format: cell-based, mouse
Method: (A) Confocal fluorescence microscopy images of Ctr1^+/+ MEFs and Ctr1^−/− MEFs treated with solvent control, CuCl2 (100 or 300 μM) or BCS (500 μM) in complete medium for 8 h, washed with complete medium and PBS, incubated with FCP-1 (5 μM) in DPBS for 45 min, and then imaged with λex=458 nm. (B) Average cellular ratiometric emission ratios of FCP-1, Fgreen/Forange, as determined from experiments performed in triplicate. (C) Total cellular ^63Cu levels were determined by ICP-MS experiments (with normalization of different cell numbers by total cellular ^31P level). (D) Confocal fluorescence microscopy images of Ctr1^+/+ MEFs and Ctr1^−/− MEFs incubated with FL-TPA (5 μM) in DPBS for 45 min. The cells were then imaged with λex=488 nm. (E) Average cellular fluorescence intensity of FL-TPA, FFL-TPA, determined from experiments performed in triplicate with λex=488 nm. Error bars denote SD (n=3). *p<0.05, **p<0.01 and ***p<0.001.
Cell culture. Following cell cultures were grown: Human embryonic kidney (HEK 293T) cells were maintained in Dulbecco's Modified Eagle Medium (DMEM) supplemented with 10 vol % fetal bovine serum (FBS), 1 vol % GlutaMax (Gibco) and 1 vol % non-essential amino acids (NEAA, Gibco). Ctrl1^+/+ and Ctr1^−/− MEF cells were maintained in DMEM with 10 vol % FBS, 1 vol % non-essential amino acids, 1 vol % sodium pyruvate and 0.1 vol % 2-mercaptoethanol or DMEM supplemented with 10 vol % FBS and 1× Penicillin-Streptomycin. Human cervical epithelial carcinoma (HeLa) was maintained in DMEM medium supplemented with 1 vol % GlutaMAX and 10 vol % FBS. All cells were incubated in 5% CO2 humidified air and subcultured at 80% confluence.
Confocal fluorescence microscopy imaging. For confocal fluorescence imaging experiments of HEK293T, MEF Ctr1^+/+ and Ctr1^−/− and HeLa cells, the cells were plated on 8-well Lab Tek borosilicate chambered coverglass slides (Nunc), and allowed to grow to ca. 60% confluency before performing the cell imaging experiments. The confocal imaging was performed with a Zeiss laser scanning microscope 710 with 20× or 63× oil-immersion objective lens using Zen 2009 software (Carl Zeiss). FCP-1 was excited with 458 nm with an Ar laser, and the emissions were collected using a META detector between 465 and 541 nm (Fgreen), and between 559 and 710 nm (Forange). DRAQ-5 was excited with a 633 nm He Ne laser, and its emission was collected using a META detector between 661 and 759 nm. Image analysis was performed using ImageJ, with ratiometric images generated by the Ratio Plus plugin of ImageJ. For quantification, a threshold value was set as background and the average intensity of the whole image was measured by ImageJ. All experiments were performed in triplicate, and statistical analyses were performed with a two-tailed Student's t-test (MS excel).
Having established that FCP-1 is sensitive to endogenous pools of labile Cu(I) under basal conditions and can respond to changes in labile Cu(I) pools upon pharmacological copper supplementation and/or depletion, the application of FCP-1 to visualize alterations in endogenous labile Cu(I) pools through genetic manipulation was explored. To this end, comparative FCP-1 imaging was performed in mouse embryonic fibroblast cells that are either Cu-replete (Ctr1^+/+ MEFs) or Cu-deficient (Ctr1^−/− MEFs) through knockout of the high-affinity copper transporter CTR1 (64-66).
Complementary ICP-MS measurements confirm that total copper levels in Ctr1^−/− MEFs are lower than Ctr1^+/+ MEFs (FIG. 12C). […]

CC[N+](CC)=c1ccc2c(-c3ccccc3C(=O)O)c3ccc(N4CCN(Cc5cccc(CN(Cc6ccccn6)Cc6cccc(COc7ccc8c(-c9ccccc9C(=O)OC)c9ccc(=O)cc-9oc8c7)n6)n5)CC4)cc3oc-2c1 [FCP-1]
Fgreen/Forange ratio in BSO-treated cells compared to control ([1]; BSO 1 mM 4 h): higher
Fgreen/Forange ratio in ascorbate-treated cells compared to control ([1]; ascorbate 1 mM 4 h): statistically significant increase
cellular viability by nuclear stain DRAQ5 ([2]; Ctr1+/+ MEFs (FIG. 13)): cellular viability was maintained
Fgreen/Forange ratio after BCS ([2]; Ctr1+/+ MEFs, BCS): reduction in Fgreen/Forange ratio
Fgreen/Forange ratio after CuCl2 ([2]; Ctr1+/+ MEFs, varying concentrations of CuCl2): dose-dependent increase
Fgreen/Forange ratio, Ctr1+/+ MEFs compared to Ctr1−/− MEFs ([2]; basal, FCP-1 5 μM, p<0.01): higher Fgreen/Forange ratios
